Results as given in US9738655B2, “Tetrahydroisoquinolines containing substituted azoles as factor XIa inhibitors” (BRISTOL-MYERS SQUIBB COMPANY, priority 2013, dated 2017).
Counter-ions that a name gives are not always drawn.

target: purified human plasma kallikrein (Homo sapiens (Human), UniProt P03952); experiment: Plasma kallikrein enzyme inhibition assay (chromogenic substrate S-2302); assay type: biochemical; conditions: measured at 25° C. (no asterisk)
Sequence (P03952 391-638): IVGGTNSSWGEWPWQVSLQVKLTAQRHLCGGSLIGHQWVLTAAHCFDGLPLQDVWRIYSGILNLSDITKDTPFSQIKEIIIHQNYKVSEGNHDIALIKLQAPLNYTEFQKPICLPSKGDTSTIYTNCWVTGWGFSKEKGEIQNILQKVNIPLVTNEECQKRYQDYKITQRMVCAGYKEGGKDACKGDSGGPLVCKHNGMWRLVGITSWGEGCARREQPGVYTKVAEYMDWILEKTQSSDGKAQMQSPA
Sequence (P03952 20-390 partner): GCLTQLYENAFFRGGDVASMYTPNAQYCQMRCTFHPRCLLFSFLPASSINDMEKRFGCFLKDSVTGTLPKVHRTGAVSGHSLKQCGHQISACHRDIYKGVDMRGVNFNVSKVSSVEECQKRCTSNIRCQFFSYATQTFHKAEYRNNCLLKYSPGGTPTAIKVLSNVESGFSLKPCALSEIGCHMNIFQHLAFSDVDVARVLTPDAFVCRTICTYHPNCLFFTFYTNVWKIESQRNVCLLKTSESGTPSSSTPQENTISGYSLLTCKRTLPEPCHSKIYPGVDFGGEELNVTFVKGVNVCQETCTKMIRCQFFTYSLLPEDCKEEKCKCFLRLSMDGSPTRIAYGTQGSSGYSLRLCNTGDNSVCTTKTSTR

| Ki [nM] | SMILES |
| --- | --- |
| 186 | O=C(O)c1ccc(NC(=O)C2c3cccc(N4CCOCC4)c3CCN2C(=O)[C@H]2CC(c3cccc(Cl)c3F)=NO2)cc1 (stereo in doubt) [Example 296, 4-((S)-2-((R)-3-(3-chloro-2-fluorophenyl)-4,5-dihydroisoxazole-5-carbonyl)-5-morpholino-1,2,3,4-tetrahydroisoquinoline-1-carboxamido)benzoic acid, TFA salt] |
| 6.38 | O=C(O)c1ccc(NC(=O)[C@@H]2c3ccccc3CCN2C(=O)[C@H]2CC(c3cccc(Cl)c3F)=NO2)cc1 [Example 4, 4-((S)-2-((R)-3-(3-Chloro-2-fluorophenyl)-4,5-dihydroisoxazole-5-carbonyl)-1,2,3,4-tetrahydroisoquinoline-1-carboxamido)benzoic acid] |
| 1380 | O=C(O)c1ccc(NC(=O)[C@H]2c3ccccc3CCN2C(=O)[C@H]2CC(c3cccc(Cl)c3F)=NO2)cc1 [Example 5, 4-((R)-2-((R)-3-(3-Chloro-2-fluorophenyl)-4,5-dihydroisoxazole-5-carbonyl)-1,2,3,4-tetrahydroisoquinoline-1-carboxamido)benzoic acid] |
| 1.51 | CNC(=O)c1ccc(-c2cccc3c2CCN(C(=O)[C@H]2CC(c4cccc(Cl)c4F)=NO2)[C@@H]3C(=O)Nc2ccc(C(=O)O)cc2)cn1 [Example 19, 4-((S)-2-((R)-3-(3-Chloro-2-fluorophenyl)-4,5-dihydroisoxazole-5-carbonyl)-5-(6-(methylcarbamoyl)pyridin-3-yl)-1,2,3,4-tetrahydroisoquinoline-1-carboxamido)benzoic acid, TFA salt] |
| 840 | CNC(=O)c1ccc(-c2cccc3c2CCN(C(=O)[C@H]2CC(c4cccc(Cl)c4F)=NO2)[C@H]3C(=O)Nc2ccc(C(=O)O)cc2)cn1 [Example 20, 4-((R)-2-((R)-3-(3-Chloro-2-fluorophenyl)-4,5-dihydroisoxazole-5-carbonyl)-5-(6-(methylcarbamoyl)pyridin-3-yl)-1,2,3,4-tetrahydroisoquinoline-1-carboxamido)benzoic acid, TFA salt] |
| 15.2 | COCCOc1cccc2c1CCN(C(=O)[C@H]1CC(c3cccc(Cl)c3F)=NO1)[C@@H]2C(=O)Nc1ccc(C(=O)O)cc1 [Example 114, 4-((S)-2-((R)-3-(3-Chloro-2-fluorophenyl)-4,5-dihydroisoxazole-5-carbonyl)-5-(2-methoxyethoxy)-1,2,3,4-tetrahydroisoquinoline-1-carboxamido)benzoic Acid] |
| 61.3 | COCCOc1cccc2c1CCN(C(=O)[C@H]1CC(c3cccc(Cl)c3F)=NO1)[C@H]2C(=O)Nc1ccc(C(=O)O)cc1 [Example 115, 4-((R)-2-((R)-3-(3-Chloro-2-fluorophenyl)-4,5-dihydroisoxazole-5-carbonyl)-5-(2-methoxyethoxy)-1,2,3,4-tetrahydroisoquinoline-1-carboxamido)benzoic acid] |
| 816 | COC1CCN(c2cccc3c2CCN(C(=O)C2CCN(c4cccc(Cl)c4)C2=O)C3C(=O)Nc2ccc(C(=O)O)cc2)CC1 (centres unmarked) [Example 151, 4-(2-(1-(3-chlorophenyl)-2-oxopyrrolidine-3-carbonyl)-5-(4-methoxypiperidin-1-yl)-1,2,3,4-tetrahydroisoquinoline-1-carboxamido)benzoic acid, TFA salt] |
| 1.11 | CN1CCN(c2cccc3c2CCN(C(=O)C2CC(c4cccc(Cl)c4F)=NO2)C3C(=O)Nc2ccc(C(=O)O)cc2)CC1 (centres unmarked) [Example 202, 4-(2-(3-(3-chloro-2-fluorophenyl)-4,5-dihydroisoxazole-5-carbonyl)-5-(4-methylpiperazin-1-yl)-1,2,3,4-tetrahydroisoquinoline-1-carboxamido)benzoic acid, 2 TFA salt] |

same assay, conditions: measured at 25° C. (no asterisk); TFA

| Ki [nM] | SMILES |
| --- | --- |
| 31.7 | COC1CCN(c2cccc3c2CCN(C(=O)C2CC(c4cccc(Cl)c4F)=NO2)C3C(=O)Nc2ccc(C(=O)O)cc2)CC1 (single isomer, unassigned) [Example 305, 4-(2-(3-(3-chloro-2-fluorophenyl)-4,5-dihydroisoxazole-5-carbonyl)-5-(4-methoxypiperidin-1-yl)-1,2,3,4-tetrahydroisoquinoline-1-carboxamido)benzoic acid, TFA] |

same assay, conditions: measured at 25° C. (no asterisk); TFA salt

| Ki [nM] | SMILES |
| --- | --- |
| 1960 | COC1CCN(c2cccc3c2CCN(C(=O)C2CC(c4cccc(Cl)c4F)=NO2)C3C(=O)Nc2ccc(C(=O)O)cc2)CC1 (single isomer, unassigned) [Example 303, 4-(2-(3-(3-chloro-2-fluorophenyl)-4,5-dihydroisoxazole-5-carbonyl)-5-(4-methoxypiperidin-1-yl)-1,2,3,4-tetrahydroisoquinoline-1-carboxamido)benzoic acid, TFA salt] |
| 232 | COC1CCN(c2cccc3c2CCN(C(=O)C2CC(c4cccc(Cl)c4F)=NO2)C3C(=O)Nc2ccc(C(=O)O)cc2)CC1 (single isomer, unassigned) [Example 304, 4-(2-(3-(3-chloro-2-fluorophenyl)-4,5-dihydroisoxazole-5-carbonyl)-5-(4-methoxypiperidin-1-yl)-1,2,3,4-tetrahydroisoquinoline-1-carboxamido)benzoic acid, TFA salt] |

same assay, conditions: measured at 37° C. (*)

| Ki [nM] | SMILES |
| --- | --- |
| 9.6 | O=C(O)c1ccc(NC(=O)[C@@H]2c3cccc(-c4cncc(F)c4)c3CCN2C(=O)[C@H]2CC(c3cccc(Cl)c3F)=NO2)cc1 [Example 21, 4-((S)-2-((R)-3-(3-Chloro-2-fluorophenyl)-4,5-dihydroisoxazole-5-carbonyl)-5-(5-fluoropyridin-3-yl)-1,2,3,4-tetrahydroisoquinoline-1-carboxamido)benzoic acid, TFA salt] |
| 869 | O=C(O)c1ccc(NC(=O)[C@H]2c3cccc(-c4cncc(F)c4)c3CCN2C(=O)[C@H]2CC(c3cccc(Cl)c3F)=NO2)cc1 [Example 22, 4-((R)-2-((R)-3-(3-Chloro-2-fluorophenyl)-4,5-dihydroisoxazole-5-carbonyl)-5-(5-fluoropyridin-3-yl)-1,2,3,4-tetrahydroisoquinoline-1-carboxamido)benzoic acid, TFA salt] |
| 26.9 | O=C(O)c1ccc(NC(=O)[C@@H]2c3cccc(N4CCC(C5COC5)CC4)c3CCN2C(=O)[C@H]2CC(c3cccc(Cl)c3F)=NO2)cc1 [Example 234, 4-((S)-2-((R)-3-(3-Chloro-2-fluorophenyl)-4,5-dihydroisoxazole-5-carbonyl)-5-(4-(oxetan-3-yl)piperidin-1-yl)-1,2,3,4-tetrahydroisoquinoline-1-carboxamido)benzoic acid, TFA salt] |
| 9.2 | O=C(O)c1ccc(NC(=O)[C@@H]2c3cccc(-n4cnnc4)c3CCN2C(=O)[C@H]2CC(c3cccc(Cl)c3F)=NO2)cc1 [Example 247, 4-((S)-2-((R)-3-(3-Chloro-2-fluorophenyl)-4,5-dihydroisoxazole-5-carbonyl)-5-(4H-1,2,4-triazol-4-yl)-1,2,3,4-tetrahydroisoquinoline-1-carboxamido)benzoic acid, TFA salt] |
| 83.2 | O=C(O)c1ccc(NC(=O)[C@H]2c3cccc(-n4cnnc4)c3CCN2C(=O)[C@H]2CC(c3cccc(Cl)c3F)=NO2)cc1 [Example 248, 4-((R)-2-((R)-3-(3-Chloro-2-fluorophenyl)-4,5-dihydroisoxazole-5-carbonyl)-5-(4H-1,2,4-triazol-4-yl)-1,2,3,4-tetrahydroisoquinoline-1-carboxamido)benzoic acid, TFA salt] |

target: purified human Factor XIa (Homo sapiens (Human), UniProt P03951); experiment: Factor XIa enzyme inhibition assay (chromogenic substrate S-2366); conditions: read-out: Factor XIa Ki; measured at 25° C.
Sequence (P03951 388-625): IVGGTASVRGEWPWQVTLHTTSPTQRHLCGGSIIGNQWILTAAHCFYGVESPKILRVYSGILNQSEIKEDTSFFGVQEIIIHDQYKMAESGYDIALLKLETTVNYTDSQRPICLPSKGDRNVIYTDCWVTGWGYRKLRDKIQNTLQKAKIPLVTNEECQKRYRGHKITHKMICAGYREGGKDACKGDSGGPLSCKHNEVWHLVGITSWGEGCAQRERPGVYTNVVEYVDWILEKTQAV
Sequence (P03951 19-387 partner): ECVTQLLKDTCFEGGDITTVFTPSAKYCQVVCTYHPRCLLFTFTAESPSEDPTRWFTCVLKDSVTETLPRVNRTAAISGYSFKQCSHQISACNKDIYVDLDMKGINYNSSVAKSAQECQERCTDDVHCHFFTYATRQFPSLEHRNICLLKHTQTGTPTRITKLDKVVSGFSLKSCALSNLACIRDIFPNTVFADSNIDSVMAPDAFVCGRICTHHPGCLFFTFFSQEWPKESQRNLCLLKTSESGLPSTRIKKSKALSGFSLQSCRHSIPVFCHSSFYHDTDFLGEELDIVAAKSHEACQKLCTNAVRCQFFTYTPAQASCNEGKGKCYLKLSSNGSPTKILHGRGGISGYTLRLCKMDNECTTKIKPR

| Ki [nM] | SMILES |
| --- | --- |
| < 5 | O=C(O)c1ccc(NC(=O)C2c3cccc(N4CCC(N5CCCC5)CC4)c3CCN2C(=O)c2cn(-c3cccc(Cl)c3F)nn2)cc1 (centres unmarked) [Example 210, 4-(2-(1-(3-chloro-2-fluorophenyl)-1H-1,2,3-triazole-4-carbonyl)-5-(4-(pyrrolidin-1-yl)piperidin-1-yl)-1,2,3,4-tetrahydroisoquinoline-1-carboxamido)benzoic acid, 2 TFA salt] |
| < 5 | O=C(O)c1ccc(NC(=O)[C@@H]2c3cccc(N4CCN(C5COC5)CC4)c3CCN2C(=O)[C@H]2CC(c3cccc(Cl)c3F)=NO2)cc1 [Example 227, 4-((S)-2-((R)-3-(3-Chloro-2-fluorophenyl)-4,5-dihydroisoxazole-5-carbonyl)-5-(4-(oxetan-3-yl)piperazin-1-yl)-1,2,3,4-tetrahydroisoquinoline-1-carboxamido)benzoic acid, 2 TFA salt] |
| < 5 | O=C(O)c1ccc(NC(=O)[C@H]2c3cccc(N4CCN(C5COC5)CC4)c3CCN2C(=O)[C@H]2CC(c3cccc(Cl)c3F)=NO2)cc1 [Example 228, 4-((R)-2-((R)-3-(3-Chloro-2-fluorophenyl)-4,5-dihydroisoxazole-5-carbonyl)-5-(4-(oxetan-3-yl)piperazin-1-yl)-1,2,3,4-tetrahydroisoquinoline-1-carboxamido)benzoic acid, 2 TFA salt] |
| < 5 | O=C(O)c1ccc(NC(=O)[C@@H]2c3cccc(N4CCOCC4=O)c3CCN2C(=O)[C@H]2CC(c3cccc(Cl)c3F)=NO2)cc1 [Example 289, 4-((S)-2-((R)-3-(3-chloro-2-fluorophenyl)-4,5-dihydroisoxazole-5-carbonyl)-5-(3-oxomorpholino)-1,2,3,4-tetrahydroisoquinoline-1-carboxamido)benzoic acid,] |

same assay, conditions: read-out: Factor XIa Ki; measured at 25° C.; TFA salt

| Ki [nM] | SMILES |
| --- | --- |
| 127 | COC1CCN(c2cccc3c2CCN(C(=O)C2CCN(c4cccc(Cl)c4)C2)C3C(=O)Nc2ccc(C(=O)O)cc2)CC1 (centres unmarked) [Example 258, 4-(2-(1-(3-chlorophenyl)pyrrolidine-3-carbonyl)-5-(4-methoxypiperidin-1-yl)-1,2,3,4-tetrahydroisoquinoline-1-carboxamido)benzoic acid, TFA salt] |
| 948 | COC1CCN(c2cccc3c2CCN(C(=O)C2CCN(c4cccc(Cl)c4)C2)C3C(=O)Nc2ccc(C(=O)O)cc2)CC1 (centres unmarked) [Example 261, 4-(2-(1-(3-chlorophenyl)pyrrolidine-3-carbonyl)-5-(4-methoxypiperidin-1-yl)-1,2,3,4-tetrahydroisoquinoline-1-carboxamido)benzoic acid, TFA salt] |
